Experimental data reported in PubChem BioAssay AID2060605 (Molecular Pharmacology Branch, DTP, NCI, 2025).
Values joined by “and” are separate entries in the source; they are usually repeats but may differ in a detail not shown here. Equal entries are not always repeated. Active and inactive are the calls of the source. How the source made its calls: active means viability on the fitted dose curve at most 10% of control; inactive means the rest.

System: 947758-054-R-J2-PDC spheroid growth, percent test/control
Experiment: Anticancer human tumor 947758-054-R-J2-PDC patient-derived colon adenocarcinoma cell line growth inhibition [CLK]
Settings: spheroids with HUVEC and MSC; for viability, T/C: stronger effect = lower value
Source text: A high-throughput screen of multi-cell type tumor spheroids was designed to identify active combinations of […] and targeted small molecules. Complex spheroids include a stromal component modeled by human endothelial cells (HUVEC) and fibroblasts modeled by human mesenchymal stem cells (MSCs). The concentration ranges selected for each drug and investigational agent were based upon clinically achievable concentrations if the clinical Cmax of the agent was known.
Compounds. The drugs and investigational agents: cirtuvivint (SM08502; NSC835563), CC-671 (NSC850746), vemurafenib (NSC761431), tapotoclax (NSC804041), sotorasib (NSC818433), adagrasib (NSC831453), MRTX-1133 (NSC836407), BAY2416964 (NSC825713), copanlisib (NSC816437), inavolisib (NSC800729), abemaciclib (NSC768073), osimertinib (NSC779217), entinostat (NSC756642), eltanexor (KPT-8602, NSC794443), venetoclax (NSC766270), ceralasertib (NSC777638), bortezomib (NSC756655), olaparib (NSC753686), talazoparib (NSC767125), alisertib (NSC759677), peposertib (NSC802822), gemcitabine (NSC613327), 5-fluorouracil (NSC19893), SN-38 (NSC673596), oxaliplatin (NSC266046), paclitaxel (NSC125973), and doxorubicin (NSC123127), were obtained from the National Cancer Institute (NCI) Developmental Therapeutics Program Chemical Repository. The FDA-approved anticancer drug set is available from the Developmental Therapeutics Program at https://dtp.cancer.gov/organization/dscb/obtaining/available plates.htm. […] The stock solutions were prepared in dimethyl sulfoxide (DMSO, Sigma-Aldrich, St. Louis, MO, cat. D2650), except for the platinum complexes which were prepared in saline (Quality Biological, Gaithersburg, MD, cat. 114-055-101), at 800-fold the tested concentration and stored at -70 degrees C prior to their use. All drugs and investigational agents were tested over a range starting from a high concentration at or near the clinical Cmax and decreasing in half-log increments. If the clinical Cmax for an agent had not been determined, the highest concentration tested was 10 microM.
Cell Culture. All cells were maintained in an incubator at 37 degrees C and 5% CO2 with 95% humidity. The PDC lines were cultured according to standard operating procedures established by the NCI PDMR. Briefly, all PDCs were thawed and cultured in Matrigel-coated flasks prepared with a working solution of 1X Ham's F-12 nutrient mix, without supplementation (Invitrogen, Waltham, MA, cat. 11765054), 100 U/mL penicillin-streptomycin (Invitrogen, cat. 15140122), and 2.5% Matrigel (Corning Inc., Corning, NY, cat. 354248) for the first three passages. The 947758-054-R-J2-PDC line was cultured in 6B/Colon 1A media, which includes advanced DMEM/F-12 (Thermo Fisher Scientific, cat. 12634028), 10 mM HEPES (Thermo Fisher Scientific, cat. 15630080), 1X GlutaMAX supplement (Thermo Fisher Scientific, cat. 35050061), 0.1 mg/mL primocin (InvivoGen, cat. ant-pm-2), 10% defined fetal bovine serum, heat inactivated (HyClone Laboratories Inc., cat. SH30070.03HI), 1.25 mM N-Acetyl-L-cysteine (Sigma-Aldrich, cat. A9165), 10 mM nicotinamide (Sigma-Aldrich, cat. N0636), 1X B-27 supplement (Thermo Fisher Scientific, cat. 17504044), 1X N-2 supplement (Thermo Fisher Scientific, cat. 17502048), and 10 microM Y-27632 dihydrochloride (Tocris Bioscience, cat. 1254). The 876862-298-R-J1-PDC was cultured in 6E media, which includes all 6B/Colon 1A media components plus 50% L-WRN conditioned media (ATCC, cat. CRL-3276), 50 ng/mL recombinant human EGF recombinant protein (hEGF; Thermo Fisher Scientific, cat. PHG0311), 10 ng/mL recombinant human fibroblast growth factor 10 (hGFG-10; PeproTech, cat. 100-26), 1 ng/mL recombinant human fibroblast growth factor 2 (hFGF-2; PeproTech, cat. 100-18B), and 1 µM prostaglandin E2 (PGE2; Tocris, cat. 2296). The 227483-062-R1-J1-PDC line was cultured in Panc media, containing all 6E components except hFGF-2, with the addition of 500 nM SB-431542 (Selleckchem, cat. S1067) and 10 nM gastrin (Tocris, cat. 3006). […]

[1] = curve of first compound, second compound 0.0316 µM
[2] = curve of first compound, second compound 0.1 µM
[3] = curve of first compound, second compound 0.316 µM
[4] = curve of first compound, second compound 1 µM
[5] = curve of first compound, second compound 3.16 µM
[6] = curve of first compound, second compound 10 µM
[7] = second compound 0.0316 µM, first compound 0.0316 µM
[8] = second compound 0.0316 µM, first compound 0.1 µM
[9] = second compound 0.0316 µM, first compound 0.316 µM
[10] = second compound 0.0316 µM, first compound 1 µM
[11] = second compound 0.0316 µM, first compound 3.16 µM
[12] = second compound 0.0316 µM, first compound 10 µM
[13] = second compound 0.1 µM, first compound 0.0316 µM
[14] = second compound 0.1 µM, first compound 0.1 µM
[15] = second compound 0.1 µM, first compound 0.316 µM
[16] = second compound 0.1 µM, first compound 1 µM
[17] = second compound 0.1 µM, first compound 3.16 µM
[18] = second compound 0.1 µM, first compound 10 µM
[19] = second compound 0.316 µM, first compound 0.0316 µM
[20] = second compound 0.316 µM, first compound 0.1 µM
[21] = second compound 0.316 µM, first compound 0.316 µM
[22] = second compound 0.316 µM, first compound 1 µM
[23] = second compound 0.316 µM, first compound 3.16 µM
[24] = second compound 0.316 µM, first compound 10 µM
[25] = second compound 1 µM, first compound 0.0316 µM
[26] = second compound 1 µM, first compound 0.1 µM
[27] = second compound 1 µM, first compound 0.316 µM
[28] = second compound 1 µM, first compound 1 µM
[29] = second compound 1 µM, first compound 3.16 µM
[30] = second compound 1 µM, first compound 10 µM
[31] = second compound 3.16 µM, first compound 0.0316 µM
[32] = second compound 3.16 µM, first compound 0.1 µM
[33] = second compound 3.16 µM, first compound 0.316 µM
[34] = second compound 3.16 µM, first compound 1 µM
[35] = second compound 3.16 µM, first compound 3.16 µM
[36] = second compound 3.16 µM, first compound 10 µM
[37] = second compound 10 µM, first compound 0.0316 µM
[38] = second compound 10 µM, first compound 0.1 µM
[39] = second compound 10 µM, first compound 0.316 µM
[40] = second compound 10 µM, first compound 1 µM
[41] = second compound 10 µM, first compound 3.16 µM
[42] = second compound 10 µM, first compound 10 µM
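Further: spheroids exposed to compounds for one week before readout.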
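Wherever viability, T/C is given: 100% = DMSO vehicle control wells.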

`COc1c(OCCCN2CCOCC2)ccc2c3n(c(=NC(=O)c4cnc(N)nc4)nc12)CCN3` was tested, and the viability, T/C (compound 0.00316 µM) was 107% and 111%, the viability, T/C (compound 0.01 µM) was 80.8% and 104% and the viability, T/C (compound 0.0316 µM) was 111% and 105%. For the same compound, the viability, T/C (compound 0.1 µM) was 90.1% and 72%, the viability, T/C (compound 0.316 µM) was 38.9% and 41.3% and the viability, T/C (compound 1 µM) was 23.1% and 22.7%. The IC50 (curve of compound) was 246 nM and 224 nM.
`CN1CCN(c2cc(C(=O)Nc3cc4cc(-c5cnn(C)c5)ccc4cn3)ccn2)CC1` was tested, and the viability, T/C (compound 0.316 µM) was 5.15% [middle of 12 runs], the viability, T/C (compound 1 µM) was 0.61% [middle of 11 runs] and the viability, T/C (compound 3.16 µM) was 0.65% [middle of 10 runs]. For the same compound, the viability, T/C (compound 10 µM) was 0.36% [middle of 11 runs] and the IC50 (compound alone, run of 09/18/2023) was 216 nM [middle of 10 runs].
For `CC1COCCN1c1cc(C2(S(C)(=N)=O)CC2)nc(-c2ccnc3[nH]ccc23)n1` (centres undefined), the viability, T/C (compound 0.0316 µM) was 110% and 128%, the viability, T/C (compound 0.1 µM) was 92.4% and 100% and the viability, T/C (compound 0.316 µM) was 79.1% and 102%. The viability, T/C (compound 1 µM) was 111% and 108%, the viability, T/C (compound 3.16 µM) was 202% and the outcome (compound 3.16 µM) was “inactive”. For the same compound, the viability, T/C (compound 10 µM) was 26.1% and 28.4% and the IC50 (curve of compound) was 7430 nM and 6370 nM.
Work on `CC(=O)O[C@H]1C(=O)[C@@]2(C)[C@H]([C@H](OC(=O)c3ccccc3)[C@]3(O)C[C@H](OC(=O)[C@H](O)[C@@H](NC(=O)c4ccccc4)c4ccccc4)C(C)=C1C3(C)C)[C@]1(OC(C)=O)CO[C@@H]1C[C@@H]2O` + CN1CCN(c2cc(C(=O)Nc3cc4cc(-c5cnn(C)c5)ccc4cn3)ccn2)CC1 yielded an IC50 [1] of less than 31.6 nM, an IC50 [2] of less than 31.6 nM and an IC50 [3] of less than 31.6 nM. It also gave an IC50 [4] of less than 31.6 nM, an IC50 [5] of less than 31.6 nM and an IC50 [6] of less than 31.6 nM. The viability, T/C [7] was 7.4%, the viability, T/C [8] was 6.03% and the viability, T/C [9] was 4.94%. It also gave a viability, T/C [10] of 5.77%, a viability, T/C [11] of 6.99% and a viability, T/C [12] of 11.8%. The viability, T/C [13] was 5.33%, the viability, T/C [14] was 5.11% and the viability, T/C [15] was 4.6%. It also gave a viability, T/C [16] of 4.61%, a viability, T/C [17] of 5.41% and a viability, T/C [18] of 8.84%. For the same compound, the viability, T/C [19] was 1.4%, the viability, T/C [20] was 1.86% and the viability, T/C [21] was 2.27%. The viability, T/C [22] was 1.92%, the viability, T/C [23] was 2.04% and the viability, T/C [24] was 2.67%. It also gave a viability, T/C [25] of 0.1%, a viability, T/C [26] of 0.12% and a viability, T/C [27] of 0.3%. The viability, T/C [28] was 0.08%, the viability, T/C [29] was 0.09% and the viability, T/C [30] was 0.09%. It also gave a viability, T/C [31] of 0.16%, a viability, T/C [32] of 0.22% and a viability, T/C [33] of 0.21%. It also gave a viability, T/C [34] of 0.14%, a viability, T/C [35] of 1.02% and a viability, T/C [36] of 0.58%. The viability, T/C [37] was 1.41%, the viability, T/C [38] was 0.29% and the viability, T/C [39] was 0.23%. The viability, T/C [40] was 0.25%, the viability, T/C [41] was 0.27% and the viability, T/C [42] was 0.7%.
`CC1(C)CCC(CN2CCN(c3ccc(C(=O)NS(=O)(=O)c4ccc(NCC5CCOCC5)c([N+](=O)[O-])c4)c(Oc4cnc5[nH]ccc5c4)c3)CC2)=C(c2ccc(Cl)cc2)C1` + CN1CCN(c2cc(C(=O)Nc3cc4cc(-c5cnn(C)c5)ccc4cn3)ccn2)CC1 gave an IC50 [1] of 5540 nM, an IC50 [2] of 6730 nM and an IC50 [3] of less than 31.6 nM. The IC50 [4] was less than 31.6 nM, the IC50 [5] was less than 31.6 nM and the IC50 [6] was less than 31.6 nM. The viability, T/C [7] was 106%, the viability, T/C [8] was 142% and the viability, T/C [9] was 113%. The viability, T/C [10] was 86.5%, the viability, T/C [11] was 101% and the viability, T/C [12] was 6.09%. For the same compound, the viability, T/C [13] was 174%, the viability, T/C [14] was 220% and the viability, T/C [15] was 181%. It also gave a viability, T/C [16] of 178%, a viability, T/C [17] of 139% and a viability, T/C [18] of 2.94%. The viability, T/C [19] was 4.83%, the viability, T/C [20] was 6.64% and the viability, T/C [21] was 4.64%. The viability, T/C [22] was 5.62%, the viability, T/C [23] was 4.76% and the viability, T/C [24] was 2.09%. It also gave a viability, T/C [25] of 0.18%, a viability, T/C [26] of 2.13% and a viability, T/C [27] of 1.78%. It also gave a viability, T/C [28] of 0.17%, a viability, T/C [29] of 1.22% and a viability, T/C [30] of 0.59%. It also gave a viability, T/C [31] of 0.97%, a viability, T/C [32] of 1.19% and a viability, T/C [33] of 0.31%. For the same compound, the viability, T/C [34] was 0.2%, the viability, T/C [35] was 0.16% and the viability, T/C [36] was 3.63%. The viability, T/C [37] was 0.86%, the viability, T/C [38] was 3.93% and the viability, T/C [39] was 1.09%. For the same compound, the viability, T/C [40] was 0.43%, the viability, T/C [41] was 0.52% and the viability, T/C [42] was 0.32%.
